# Values of other authors as cited in patent US20200113899A1, “STATIN COMPOSITIONS AND METHODS FOR USE IN TREATING SYNUCLEINOPATHIES” (CHASE THERAPEUTICS CORPORATION, priority 2017, published 2020).
# Assays:
# alpha-synuclein [1] = settings: transgenic mouse models
# [2] = pramipexole 5 mg/day
# alpha-synuclein [3] = settings: Parkinson patients, therapeutic doses, compared with pre-treatment values; magnitude of the effect small
# [4] = 535 PD patients
structure (smiles),measurement,setting,value
"CC[C@H](C)C(=O)O[C@H]1C[C@@H](C)C=C2C=C[C@H](C)[C@H](CC[C@@H]3C[C@@H](O)CC(=O)O3)[C@H]21 [lovastatin, (1S,3R,7S,8S,8aR)-8-{2-[(2R,4R)-4-Hydroxy-6-oxooxan-2-yl]ethyl}-3,7-dimethyl-1,2,3,7,8,8a-hexahydronaphthalen-1-yl (2S)-2-methylbutanoate]",alpha-synuclein accumulation and oxidation,alpha-synuclein [1],ameliorated
"CCCN[C@H]1CCc2nc(N)sc2C1 [pramipexole, (S)-6-propylamino-4,5,6,7-tetrahydro-1,3-benzothiazole-2-amine]",patients with nausea,[2],76%
same,patients with vomiting,[2],39%
same,patients not able to complete the study,[2]; presumably because of intolerable GI adverse events,36%
same,relative expression of alpha-synuclein,alpha-synuclein [3],significantly lowered
same,neuroprotective (disease modifying) activity,[4],"failed to evidence neuroprotective (i.e., disease modifying) activity"
"CC(C)c1nc(N(C)S(C)(=O)=O)nc(-c2ccc(F)cc2)c1/C=C/[C@@H](O)C[C@@H](O)CC(=O)O [rosuvastatin, (3R,5S,6E)-7-[4-(4-Fluorophenyl)-2-(N-methylmethanesulfonamido)-6-(propan-2-yl)pyrimidin-5-yl]-3,5-dihydroxyhept-6-enoic acid]",effect against rotenone-induced neurotoxicity,SH-SY5Y cells,neuroprotective effect
same,α-synuclein expression,SH-SY5Y cells,modulation
